In PubChem BioAssay (NCI):
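Assay format: 96-well plates, 48-hour exposure. Definition used: TGI = concentration required for complete inhibition of growth.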

Key:
Experiment in all cases: NCI tumour cell line growth inhibition, 48 h
DLD-1 colon = system: DLD-1 colon
KM20L2 colon = system: KM20L2 colon
LXFL 529 NSCLC = system: LXFL 529 NSCLC
SNB-78 CNS = system: SNB-78 CNS
OVCAR-4 ovarian = system: OVCAR-4 ovarian
XF 498 CNS = system: XF 498 CNS
DMS 114 small cell lung = system: DMS 114 small cell lung
A549 NSCLC = system: A549 NSCLC
RPMI-8226 leukemia = system: RPMI-8226 leukemia
DMS 273 small cell lung = system: DMS 273 small cell lung
M19-MEL melanoma = system: M19-MEL melanoma
HOP-62 NSCLC = system: HOP-62 NSCLC
HOP-92 NSCLC = system: HOP-92 NSCLC
SR leukemia = system: SR leukemia
DU-145 prostate = system: DU-145 prostate

SMILES	TGI (DLD-1 colon)	TGI (KM20L2 colon)	TGI (LXFL 529 NSCLC)	TGI (SNB-78 CNS)	TGI (OVCAR-4 ovarian)	TGI (XF 498 CNS)	TGI (DMS 114 small cell lung)	TGI (A549 NSCLC)	TGI (RPMI-8226 leukemia)	TGI (DMS 273 small cell lung)	TGI (M19-MEL melanoma)	TGI (HOP-62 NSCLC)	TGI (HOP-92 NSCLC)	TGI (SR leukemia)	TGI (DU-145 prostate)
Cc1[nH]n(-c2ccccc2)c(=S)c1C(=O)c1ccccc1	60.9 µM	> 100 µM	37.2 µM	64.8 µM	> 100 µM	> 100 µM	99.1 µM	> 100 µM	50.2 µM	> 100 µM					
Cc1ccc(N2C(=O)/C(=c3\s/c(=C(/N)O)c(=N)n3-c3ccccc3)SC2=S)cc1	> 100 µM		> 100 µM					> 100 µM	> 100 µM		> 100 µM	> 100 µM	47.1 µM		
Cc1ccc(S(=O)(=O)C2=c3ncccc3=C3C(=O)c4ccccc4C(=O)C32)cc1 (centres undefined)	> 100 µM		> 100 µM	> 100 µM	64.4 µM		> 100 µM	> 100 µM	> 100 µM	> 100 µM	> 100 µM	9.14 µM	> 89.5 µM	> 100 µM	> 100 µM
Cc1ccc2c(c1)NC(=O)C(N=[N+]=[N-])(c1ccccc1)C2=O (centres undefined)	> 100 µM	74.6 µM	66.1 µM	64.3 µM	> 100 µM	60.2 µM	81.1 µM	> 100 µM		28.6 µM	40 µM	> 100 µM	85.2 µM	56.7 µM	
C(/COc1cccnc1)=N\NC1=NCCN1	> 100 µM	> 100 µM	> 100 µM	> 100 µM	> 100 µM	> 100 µM	> 100 µM	> 100 µM	> 100 µM	> 100 µM	> 100 µM	> 100 µM	> 100 µM	> 100 µM	
CC(C)NC(C)Cc1ccccc1 (centres undefined)	> 100 µM	> 100 µM	> 100 µM	> 100 µM	> 100 µM		> 100 µM	> 100 µM	> 100 µM	> 100 µM	> 100 µM	> 100 µM	> 100 µM	> 100 µM	
CC1=NN(C(=O)c2ccc(Cl)cc2)C(=O)/C1=C/c1cccc(O)c1	> 100 µM	> 100 µM	> 100 µM	> 100 µM	> 100 µM		> 100 µM	> 100 µM	> 100 µM		> 100 µM	> 100 µM	> 100 µM		
CCN(CC)CC(C)(C)C(=O)/C=C/c1ccc(C)cc1	32.4 µM	13.3 µM	20.1 µM	26.3 µM	24.4 µM	20.4 µM		42.7 µM			79.6 µM	32.9 µM	8.45 µM	26.8 µM	
C[n+]1c2ccccc2c(NC(CCC(N)=O)C(=O)O)c2ccccc21 (centres undefined)	> 100 µM	> 100 µM	> 100 µM	> 100 µM	> 100 µM	> 100 µM	> 100 µM	> 100 µM	> 100 µM	> 100 µM	> 100 µM	> 100 µM	> 100 µM	> 100 µM	
Nc1nc(=O)n(C2OC(CO)C(O)C2O)cc1F (centres undefined)	> 100 µM	> 100 µM		> 100 µM	> 100 µM	> 100 µM	3.26 µM	> 100 µM	> 100 µM	> 100 µM	> 100 µM	0.175 µM	5.9 µM		
CCOc1ccc(N=Cc2cc(OC)c(OC)c(OC)c2)cc1	> 100 µM	> 100 µM	> 100 µM	> 100 µM	> 100 µM	> 100 µM	> 100 µM	> 100 µM	45.1 µM	> 100 µM	> 100 µM	> 100 µM	> 100 µM		
CCC(C)(C)NC1=C(NC(C)=O)C(=O)c2ccccc2C1=O	> 75 µM	> 75 µM	> 75 µM	> 75 µM	> 75 µM	40.2 µM		> 75 µM		> 75 µM	23.7 µM	> 75 µM		> 75 µM	
COc1cc(OC)c(/C=N/N=C(\N)NO)c(OC)c1					> 100 µM			> 100 µM	> 100 µM			> 100 µM	> 100 µM	> 100 µM	> 100 µM
